Patent publication US8715709B2, “Sustained release intraocular implants and methods for treating ocular neuropathies” (Allergan, Inc., priority 2004, dated 2014)
Counter-ions that a name gives are not always drawn. Like-named read-outs stand apart in the source and are kept apart here.

Legend:
[1] = aqueous / dissolution medium (0.9% saline), cited from earlier work
[2] = in vivo; details: rabbit
Description: Sampling was done from the anterior chamber for the first five animals after 1 hr, 3 hr, 6 hr, 12 hr, and 24 hr, and from both the anterior chamber and posterior segment of the remaining five animals after 1 hr, 3 hr, 6 hr, 24 hr, and 48 hr. One animal was used for each time point.

## CC(C)(C)NC[C@H](O)COc1nsnc1N1CCOCC1 [Timolol Maleate, (−)-1-(tert-butylamino)-3-[(4-morpholino-1,2,5-thiadiazo-3-yl)oxy]-2-propanol maleate, (1:1) salt]
[1]; listed as timolol maleate
  solubility in aqueous medium (in words): high water solubility
[2]
  clearance in the posterior segment compared with anterior chamber (in words): relatively slower clearance rate
  half-life: ~1.43 h
  levels in the anterior chamber from posterior segment bolus injection (in words): the levels were small and considered insignificant

## CC(C)(C)NC[C@H](O)COc1nsnc1N1CCOCC1 [Timolol freebase]
[1]
  solubility in aqueous medium (in words): less soluble
